Data from patent US20240246937A1 (MERCK SHARP & DOHME LLC, priority 2021, published 2024).

Target: recombinant IL4I1 (Homo sapiens (Human), UniProt Q96RQ9)
Assay: IL4I1 Enzymatic Assay (Amplex Red/HRP coupled fluorescence detection of H2O2)
Type: biochemical
Conditions: 240 min; recombinant IL4I1, four-hour pre-incubation with compound
Outline: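 Ten-point, 1:3 compound titrations were fitted by four-parameter sigmoidal regression to give EC50. Resorufin fluorescence (544/590 nm) from Amplex Red/HRP-coupled H2O2 detection was read 120 min after adding 1 mM each aromatic amino acid to 1 nM IL4I1, following a 4 h compound pre-incubation in pH 7.0 Hepes buffer.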

Sequence of recombinant IL4I1 (Q96RQ9 22-567): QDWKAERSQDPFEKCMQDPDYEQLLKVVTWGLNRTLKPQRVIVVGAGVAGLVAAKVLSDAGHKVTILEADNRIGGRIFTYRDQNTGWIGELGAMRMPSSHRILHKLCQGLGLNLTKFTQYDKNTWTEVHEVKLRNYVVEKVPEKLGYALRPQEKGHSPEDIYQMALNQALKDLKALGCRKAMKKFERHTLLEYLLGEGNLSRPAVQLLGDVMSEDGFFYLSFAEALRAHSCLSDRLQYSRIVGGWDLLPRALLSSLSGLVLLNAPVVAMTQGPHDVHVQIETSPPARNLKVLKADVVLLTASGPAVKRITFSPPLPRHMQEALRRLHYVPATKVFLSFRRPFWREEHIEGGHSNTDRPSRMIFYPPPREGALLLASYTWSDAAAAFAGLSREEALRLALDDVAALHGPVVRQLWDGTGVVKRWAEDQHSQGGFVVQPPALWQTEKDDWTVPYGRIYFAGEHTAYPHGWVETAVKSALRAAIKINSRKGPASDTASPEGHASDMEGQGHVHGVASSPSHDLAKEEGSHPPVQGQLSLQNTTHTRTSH

EC50	Compound
3 nM	O=C1C(=O)N(C2CCC2)CCN1Cc1cc(-c2ccccc2F)no1 [Example 149, 1-cyclobutyl-4-((3-(2-fluorophenyl)isoxazol-5-yl)methyl)piperazine-2,3-dione]
3 nM	O=C1C(=O)N(C2CCC2)CCN1Cc1cc(-c2ccc(F)cc2)no1 [Example 150, 1-cyclobutyl-4-((3-(4-fluorophenyl)isoxazol-5-yl)methyl)piperazine-2,3-dione]
1 nM	O=c1c(=O)n(C2CCC2)ccn1Cc1cc(-c2ccccc2)no1 [Example 151, 1-cyclobutyl-4-((3-phenylisoxazol-5-yl)methyl)-1,4-dihydropyrazine-2,3-dione]
2 nM	O=c1c(=O)n(C2CCC2)ccn1Cc1cc(-c2ccccc2F)no1 [Example 152, 1-cyclobutyl-4-((3-(2-fluorophenyl)isoxazol-5-yl)methyl)-1,4-dihydropyrazine-2,3-dione]
3 nM	O=C1C(=O)N(C2CCCC2)CCN1Cc1cc(-c2cccc(F)c2)no1 [Example 153, 1-cyclopentyl-4-((3-(3-fluorophenyl)isoxazol-5-yl)methyl)piperazine-2,3-dione]
3 nM	O=C1C(=O)N(C2CCCC2)CCN1Cc1cc(-c2ccccc2F)no1 [Example 154, 1-cyclopentyl-4-((3-(2-fluorophenyl)isoxazol-5-yl)methyl)piperazine-2,3-dione]
2 nM	O=c1c(=O)n(C2CCCC2)ccn1Cc1cc(-c2cccc(F)c2)no1 [Example 155, 1-cyclopentyl-4-((3-(3-fluorophenyl)isoxazol-5-yl)methyl)-1,4-dihydropyrazine-2,3-dione]
2 nM	O=c1c(=O)n(C2CCCC2)ccn1Cc1cc(-c2ccccc2F)no1 [Example 156, 1-cyclopentyl-4-((3-(2-fluorophenyl)isoxazol-5-yl)methyl)-1,4-dihydropyrazine-2,3-dione]
1 nM	O=c1c(=O)n(C2CCC2)ccn1Cc1cc(-c2cccc(F)c2)no1 [Example 157, 1-cyclobutyl-4-((3-(3-fluorophenyl)isoxazol-5-yl)methyl)-1,4-dihydropyrazine-2,3-dione]
4 nM	O=C1C(=O)N(C2CCC2)CCN1Cc1cc(-c2cccc(F)c2)no1 [Example 158, 1-cyclobutyl-4-((3-(3-fluorophenyl)isoxazol-5-yl)methyl)piperazine-2,3-dione]
1 nM	O=c1c(=O)n(C2CCC2)ccn1Cc1cc(-c2ccc(F)cc2)no1 [Example 159, 1-cyclobutyl-4-((3-(4-fluorophenyl)isoxazol-5-yl)methyl)-1,4-dihydropyrazine-2,3-dione]
5 nM	O=c1c(=O)n(C2CCC2)ccn1Cc1cnn(-c2ccccc2)c1 [Example 160, 1-cyclobutyl-4-((1-phenyl-1H-pyrazol-4-yl)methyl)-1,4-dihydropyrazine-2,3-dione]
5 nM	O=c1c(=O)n(C2CCC2)ccn1Cc1cc(-c2ccccn2)no1 [Example 161, 1-cyclobutyl-4-((3-(pyridin-2-yl)isoxazol-5-yl)methyl)-1,4-dihydropyrazine-2,3-dione]
4 nM	O=C1C(=O)N(C2CCCC2)CCN1Cc1cc(-c2ccc(F)cc2)no1 [Example 162, 1-cyclopentyl-4-((3-(4-fluorophenyl)isoxazol-5-yl)methyl)piperazine-2,3-dione]
6 nM	O=c1c(=O)n(C2CCCC2)ccn1Cc1cc(-c2ccccn2)no1 [Example 163, 1-cyclopentyl-4-((3-(pyridin-2-yl)isoxazol-5-yl)methyl)-1,4-dihydropyrazine-2,3-dione]
1 nM	O=c1c(=O)n(C2CCCC2)ccn1Cc1cc(-c2ccc(F)cc2)no1 [Example 164, 1-cyclopentyl-4-((3-(4-fluorophenyl)isoxazol-5-yl)methyl)-1,4-dihydropyrazine-2,3-dione]
12 nM	O=c1c(=O)n(C2CCC2)ccn1Cc1cc(-c2ccccc2)ns1 [Example 165]
10 nM	CC1(N2CCN(Cc3nnc(-c4ccccc4)s3)C(=O)C2=O)CCC1 [Example 166, 1-(1-methylcyclobutyl)-4-((5-phenyl-1,3,4-thiadiazol-2-yl)methyl)piperazine-2,3-dione]
9 nM	CC1(N2CCN(Cc3cc(-c4ccccc4)on3)C(=O)C2=O)CCC1 [Example 167, 1-(1-methylcyclobutyl)-4-((5-phenylisoxazol-3-yl)methyl)piperazine-2,3-dione]
6 nM	O=c1c(=O)n(C2CCC2)ccn1Cc1cc(-c2ccccc2)n[nH]1 [Example 168, 1-cyclobutyl-4-((3-phenyl-1H-pyrazol-5-yl)methyl)-1,4-dihydropyrazine-2,3-dione]
7 nM	O=c1c(=O)n(C23CC(C2)C3)ccn1Cc1cc(-c2ccccn2)on1 [Example 169, 1-(bicyclo[1.1.1]pentan-1-yl)-4-((5-(pyridin-2-yl)isoxazol-3-yl)methyl)-1,4-dihydropyrazine-2,3-dione]
4 nM	O=C1C(=O)N([C@H]2C[C@H]3C[C@H]3C2)CCN1Cc1cc(-c2ccccc2)no1 [Example 170, 1-((cis)-bicyclo[3.1.0]hexan-3-yl)-4-((3-phenylisoxazol-5-yl)methyl)piperazine-2,3-dione]

More lines, now with the values behind:

Compound	EC50
O=c1c(=O)n(C2CCC2)ccn1Cc1cnc(-c2ccccc2)cn1 [Example 127, 1-cyclobutyl-4-((5-phenylpyrazin-2-yl)methyl)-1,4-dihydropyrazine-2,3-dione]	3 nM
O=c1c(=O)n([C@H]2C[C@H]3C[C@H]3C2)ccn1Cc1cnc(-c2ccccc2)c(F)c1 [Example 128, 1-((cis)-bicyclo[3.1.0]hexan-3-yl)-4-((5-fluoro-6-phenylpyridin-3-yl)methyl)-1,4-dihydropyrazine-2,3-dione]	2 nM
O=C1C(=O)N([C@H]2C[C@H]3C[C@H]3C2)CCN1Cc1cnc(-c2ccccc2)cn1 [Example 129, 1-((cis)-bicyclo[3.1.0]hexan-3-yl)-4-((5-phenylpyrazin-2-yl)methyl)piperazine-2,3-dione]	6 nM
O=c1c(=O)n(C2CCC2)ccn1Cc1cnc(-c2ccccc2)nc1 [Example 130, 1-cyclobutyl-4-((2-phenylpyrimidin-5-yl)methyl)-1,4-dihydropyrazine-2,3-dione]	5 nM
O=C1C(=O)N([C@H]2C[C@H]3C[C@H]3C2)CCN1Cc1cnc(-c2ccccc2)c(F)c1 [Example 131, 1-((cis)-bicyclo[3.1.0]hexan-3-yl)-4-((5-fluoro-6-phenylpyridin-3-yl)methyl)piperazine-2,3-dione]	9 nM
O=C1C(=O)N(C2CCCC2)CCN1CC12CC(c3ccccc3)(C1)C2 [Example 132, 1-cyclopentyl-4-((3-phenylbicyclo[1.1.1]pentan-1-yl)methyl)piperazine-2,3-dione]	15 nM
O=C1C(=O)N(C2CCC2)CCN1Cc1nnc(-c2ccccc2)s1 [Example 135, 1-cyclobutyl-4-((5-phenyl-1,3,4-thiadiazol-2-yl)methyl)piperazine-2,3-dione]	6 nM
O=C1C(=O)N(C2CCC2)CCN1Cc1ccc(-n2nccn2)cn1 [Example 136, 1-((5-(2H-1,2,3-triazol-2-yl)pyridin-2-yl)methyl)-4-cyclobutylpiperazine-2,3-dione]	20 nM
O=c1c(=O)n(C2CCC2)ccn1Cc1ccc(-c2ccccc2)nn1 [Example 137, 1-cyclobutyl-4-((6-phenylpyridazin-3-yl)methyl)-1,4-dihydropyrazine-2,3-dione]	6 nM
O=C1C(=O)N(C2CCC2)CCN1Cc1cc(-c2ccccn2)on1 [Example 138, 1-cyclobutyl-4-((5-(pyridin-2-yl)isoxazol-3-yl)methyl)piperazine-2,3-dione]	12 nM
O=C1C(=O)N(C2CCCC2)CCN1Cc1ncc(-c2nccs2)cc1F [Example 139, 1-cyclopentyl-4-((3-fluoro-5-(thiazol-2-yl)pyridin-2-yl)methyl)piperazine-2,3-dione]	26 nM
O=C1C(=O)N(C2CCCC2)CCN1Cc1ccc(-n2nccn2)cc1 [Example 140, 1-(4-(2H-1,2,3-triazol-2-yl)benzyl)-4-cyclopentylpiperazine-2,3-dione]	36 nM
O=C1C(=O)N(C2CC(c3ccccc3)C2)CCN1Cc1ncc(-c2ccccc2)cn1 (stereo not drawn) [Example 141, 1-(3-phenylcyclobutyl)-4-((5-phenylpyrimidin-2-yl)methyl)piperazine-2,3-dione]	23 nM
O=C1C(=O)N(C2CC(c3ccccc3)C2)CCN1Cc1ccc(-c2ccccc2)nc1 (stereo not drawn) [Example 142, 1-(3-phenylcyclobutyl)-4-((6-phenylpyridin-3-yl)methyl)piperazine-2,3-dione]	3 nM
O=c1c(=O)n(C2CCC2)ccn1Cc1ncc(-c2ccccc2)cn1 [Example 143, 1-cyclobutyl-4-((5-phenylpyrimidin-2-yl)methyl)-1,4-dihydropyrazine-2,3-dione]	15 nM
O=c1c(=O)n(C23CC(C2)C3)ccn1Cc1nnc(-c2cccc(F)c2)s1 [Example 144, 1-(bicyclo[1.1.1]pentan-1-yl)-4-((5-(3-fluorophenyl)-1,3,4-thiadiazol-2-yl)methyl)-1,4-dihydropyrazine-2,3-dione]	2 nM
O=c1c(=O)n(C2CCCC2)ccn1Cc1nnc(-c2cccc(F)c2)s1 [Example 145, 1-cyclopentyl-4-((5-(3-fluorophenyl)-1,3,4-thiadiazol-2-yl)methyl)-1,4-dihydropyrazine-2,3-dione]	1 nM
O=C1C(=O)N(C23CC(C2)C3)CCN1Cc1cc(-c2ccccc2)on1 [Example 146, 1-(bicyclo[1.1.1]pentan-1-yl)-4-((5-phenylisoxazol-3-yl)methyl)piperazine-2,3-dione]	3 nM
O=c1c(=O)n(C23CC(C2)C3)ccn1Cc1cc(-c2ccccc2)on1 [Example 147, 1-(bicyclo[1.1.1]pentan-1-yl)-4-((5-phenylisoxazol-3-yl)methyl)-1,4-dihydropyrazine-2,3-dione]	2 nM
O=C1C(=O)N(C2CCC2)CCN1Cc1cc(-c2ccccc2)no1 [Example 148, 1-cyclobutyl-4-((3-phenylisoxazol-5-yl)methyl)piperazine-2,3-dione]	2 nM
